From US6911454B1, “Method for potentiating primary drugs in treating multidrug resistant disease” (priority 1989, dated 2005)
Where two headings read alike, the source gives them in different places.

Legend:
DX20 tumor = assay: tumor measurements in nude mice bearing the DX20 tumor; type: in vivo
Experimental: (See FIG. 6). Tumor size was calculated using the formula (4 Pi/3) X*Y*2Z.
The study was done with 3-4 week old male balb-C nude mice. The animals were injected with DX20 1×10^7 cells.

[1] = L.D.50 by single escalating injections; type: in vivo, mice
Experimental: In addition, the effects of d-Tetrandrine-(S) plus doxorubicin in Nu/Nu athymic mice inoculated with DX20 sarcoma cells, 76×resistant when compared to the parent MES-SA cells were examined. Four cohorts of nude animals bearing the DX20 tumor were treated in groups of 5 (control, doxorubicin, d-tetrandrine, and doxorubicin+d-tetrandrine). […] (See FIG. 6). Tumor size was calculated using the formula (4 Pi/3) X*Y*2Z. […] An L.D.50 dose of 260 mg/kg was also calculated by administering single escalating injections of the compound. Tables I & II and FIG. 6 give the actual measurements.

[2] = system: CQ-sensitive (FCMSU1/Sudan) strain of P. falciparum; assay: 3H-adenosine incorporation, chloroquine-sensitive P. falciparum; type: cell-based
Experimental: (§1) Chloroquine and qinghaosu are commonly used antimalarial drugs.
(§2) The dose (IC50) of each drug or each drug combination required to effect a 50% inhibition in the malarial activity of each strain was determined by establishing a dose response curve for each.
(§3) FCMSU1/Sudan strain and cloned Indochina (W-2) strain of P. falciparum were used. […] The two strains of the parasite were cultured according to the candle jar method of Trager and Jensen, Science, Vol. 193, pages 673-675 (1976). In a given experiment, four-day-old Petri dish cultures (approximately 10% parasitemia) were diluted with medium containing an amount of noninfected type A human erythrocytes to obtain a culture with a final hematocrit of 1.5% and parasitemia of 0.5-1.0%. The resulting culture was ready for addition to microtitration plates with ninety-six flat-bottom wells.
(§4) The testing procedure used was similar to that described by Desjardins et al. in “Antimicrobial Agents and Chemotherapy,” Vol. 16, pages 710-718 (1979). […] 25 microliters radioactive (0.5 microCi) [2,8-^3H] adenosine. The microtitration plates were incubated in a candle jar for an additional 18 hours, at 37° C.
(§5) As the malaria parasite grows ^3H-adenosine is metabolized and incorporates into polymeric RNA and DNA. The labeled polymers are trapped on glass fiber filters and unincorporated material is washed away. In the absence of drug there is 100% incorporation of the labeled material. When drugs interfere (directly or indirectly), an inhibitory dose of 50% (IC50) can be calculated. The experiments were repeated three times except where noted. Statistical analysis was done using Student's T-test for significance. Van Kyke et al. “Exp. Parasitol,” Vol. 64, pages 418-423 (1987).
(§6) The test procedure was basically the same as outlined above.

[3] = system: CQ-resistant (W-2) strain of P. falciparum; assay: 3H-adenosine incorporation, chloroquine-resistant P. falciparum; type: cell-based
Experimental: as §1, §2, §3, §4, §5, §6

[4] = Day 7 Prior to Treatment (baseline)
[5] = Day 24 After Treatment, d-tetrandrine days 6, 8, 10, doxorubicin 5.5 mg/kg day 12

COc1ccc2cc1Oc1ccc(cc1)C[C@H]1c3cc(c(OC)cc3CCN1C)Oc1c(OC)c(OC)cc3c1[C@H](C2)N(C)CC3 [TT, tetrandrine]
Tumor Measurements Depth (DX20 tumor; [4]): 1.13
Tumor Measurements Length (DX20 tumor; [4]): 4.13
Tumor Measurements Width (DX20 tumor; [4]): 3.75
Tumor Measurements Depth (DX20 tumor; [5]): 24.66
Tumor Measurements Width (DX20 tumor; [5]): 26.16
L.D.50 dose [1]: 260 mg/kg
IC50 ([2]; S STRAIN, TT/CQ 10:1, mean ± S.D, read-out: IC50 DRUG COMBINATION TT(2.0 uM) CQ(0.2 uM)): 114 ± 23 nM
IC50 ([2]; S STRAIN, TT/QHS 10:1, mean ± S.D, read-out: IC50 DRUG COMBINATION TT(2.0 uM) QHS(0.2 uM)): 114 ± 6.3 nM
IC50 ([2]; Table III, S STRAIN, mean ± S.D, read-out: IC50 SINGLE DRUG): 498 ± 93.7 nM
IC50 ([2]; Table IV, S STRAIN, mean ± S.D, read-out: IC50 SINGLE DRUG): 410 ± 69 nM
IC50 ([2]; Table VII, chloroquine-sensitive strain, drug alone, read-out: IC50 S): 290 nM
IC50 ([2]; read-out: IC50 DRUG COMBINATION TT(1.0 uM) CQ(0.3 uM), S STRAIN, TT/CQ 10:3, mean ± S.D): 54.9 ± 7.1 nM
IC50 ([2]; read-out: IC50 DRUG COMBINATION TT(1.0 uM) QHS(0.3 uM), S STRAIN, TT/QHS 10:3, mean ± S.D): 71.9 ± 8.9 nM
IC50 ([2]; read-out: IC50 DRUG COMBINATION TT(3.0 uM) CQ(0.1 uM), S STRAIN, TT/CQ 30:1, mean ± S.D): 223 ± 38.6 nM
IC50 ([2]; read-out: IC50 DRUG COMBINATION TT(3.0 uM) QHS(0.1 uM), S STRAIN, TT/QHS 30:1, mean ± S.D): 220 ± 35.5 nM
IC50 ([3]; R STRAIN, TT/CQ 10:1, mean ± S.D, read-out: IC50 DRUG COMBINATION TT(2.0 uM) CQ(0.2 uM)): 79.5 ± 16.1 nM
IC50 ([3]; R STRAIN, TT/QHS 10:1, mean ± S.D, read-out: IC50 DRUG COMBINATION TT(2.0 uM) QHS(0.2 uM)): 71.8 ± 13.8 nM
IC50 ([3]; Table III, R STRAIN, mean ± S.D, read-out: IC50 SINGLE DRUG): 198 ± 24.7 nM
IC50 ([3]; Table IV, R STRAIN, mean ± S.D, read-out: IC50 SINGLE DRUG): 206 ± 49.8 nM
IC50 ([3]; Table VII, chloroquine-resistant strain, drug alone, read-out: IC50 R): 120 nM
IC50 ([3]; read-out: IC50 DRUG COMBINATION TT(1.0 uM) CQ(0.3 uM), R STRAIN, TT/CQ 10:3, mean ± S.D): 79.5 ± 13.7 nM
IC50 ([3]; read-out: IC50 DRUG COMBINATION TT(1.0 uM) QHS(0.3 uM), R STRAIN, TT/QHS 10:3, mean ± S.D): 59.6 ± 13.7 nM
IC50 ([3]; read-out: IC50 DRUG COMBINATION TT(3.0 uM) CQ(0.1 uM), R STRAIN, TT/CQ 30:1, mean ± S.D): 125 ± 9.6 nM
IC50 ([3]; read-out: IC50 DRUG COMBINATION TT(3.0 uM) QHS(0.1 uM), R STRAIN, TT/QHS 30:1, mean ± S.D): 137 ± 41.6 nM
